Data as given in US10034861B2 (priority 2016, dated 2018).
Like-named read-outs stand apart in the source and are kept apart here.

Legend:
Assay type in all cases: biochemical
PDE1A = PDE1A (Homo sapiens (Human), UniProt P54750); experiment: biochemical
From the text: (§1) Table 1 lists the IC50 value for inhibition of PDE1 by the compounds of the invention. […] PDE1 assays are described in the Experimental Section.

PDE1C = PDE1C (Homo sapiens (Human), UniProt Q14123); experiment: biochemical
From the text: as §1

PDE1B = PDE1B (Homo sapiens (Human), UniProt Q01064); experiment: PDE1 inhibition assay (PDE1B); conditions: 15 nM tritium labelled cAMP, 1 hr at room temperature, SPA beads
PDE1B, sequence (Q01064 whole entry): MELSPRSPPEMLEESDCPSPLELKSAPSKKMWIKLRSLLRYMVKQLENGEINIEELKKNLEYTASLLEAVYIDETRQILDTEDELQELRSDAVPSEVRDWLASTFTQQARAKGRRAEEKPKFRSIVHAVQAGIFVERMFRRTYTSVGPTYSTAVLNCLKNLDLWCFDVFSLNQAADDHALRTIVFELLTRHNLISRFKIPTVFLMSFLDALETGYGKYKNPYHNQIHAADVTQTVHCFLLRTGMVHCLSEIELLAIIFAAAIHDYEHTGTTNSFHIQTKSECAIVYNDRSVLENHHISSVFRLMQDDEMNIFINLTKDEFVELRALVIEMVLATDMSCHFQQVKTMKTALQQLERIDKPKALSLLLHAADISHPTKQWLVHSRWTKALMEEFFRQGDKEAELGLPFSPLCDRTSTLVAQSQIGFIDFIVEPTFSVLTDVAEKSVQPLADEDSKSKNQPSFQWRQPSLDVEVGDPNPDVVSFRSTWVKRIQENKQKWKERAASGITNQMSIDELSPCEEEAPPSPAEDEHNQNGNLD
From the text: as §1

[1] = 15 nM tritium labelled cAMP, 1 hr at room temperature, SPA beads

PDE1C, sequence (Q14123 whole entry): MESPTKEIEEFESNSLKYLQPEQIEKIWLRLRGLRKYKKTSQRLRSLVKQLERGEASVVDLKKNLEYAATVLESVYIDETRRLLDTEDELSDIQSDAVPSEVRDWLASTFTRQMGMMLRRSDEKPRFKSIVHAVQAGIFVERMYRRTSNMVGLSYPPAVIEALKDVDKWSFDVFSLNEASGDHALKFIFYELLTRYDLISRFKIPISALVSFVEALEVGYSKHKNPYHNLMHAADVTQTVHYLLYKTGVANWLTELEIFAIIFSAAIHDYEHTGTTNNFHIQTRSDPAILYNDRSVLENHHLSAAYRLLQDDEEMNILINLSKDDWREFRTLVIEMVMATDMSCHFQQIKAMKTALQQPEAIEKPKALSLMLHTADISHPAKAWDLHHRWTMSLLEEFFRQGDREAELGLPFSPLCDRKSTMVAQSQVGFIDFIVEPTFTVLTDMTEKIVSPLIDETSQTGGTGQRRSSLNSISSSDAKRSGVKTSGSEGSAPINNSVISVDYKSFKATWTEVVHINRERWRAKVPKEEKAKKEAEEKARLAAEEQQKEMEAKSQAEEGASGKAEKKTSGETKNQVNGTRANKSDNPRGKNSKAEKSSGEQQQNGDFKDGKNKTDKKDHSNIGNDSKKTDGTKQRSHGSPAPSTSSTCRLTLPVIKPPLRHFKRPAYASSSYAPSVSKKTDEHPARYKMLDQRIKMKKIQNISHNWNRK
PDE1A, sequence (P54750 whole entry): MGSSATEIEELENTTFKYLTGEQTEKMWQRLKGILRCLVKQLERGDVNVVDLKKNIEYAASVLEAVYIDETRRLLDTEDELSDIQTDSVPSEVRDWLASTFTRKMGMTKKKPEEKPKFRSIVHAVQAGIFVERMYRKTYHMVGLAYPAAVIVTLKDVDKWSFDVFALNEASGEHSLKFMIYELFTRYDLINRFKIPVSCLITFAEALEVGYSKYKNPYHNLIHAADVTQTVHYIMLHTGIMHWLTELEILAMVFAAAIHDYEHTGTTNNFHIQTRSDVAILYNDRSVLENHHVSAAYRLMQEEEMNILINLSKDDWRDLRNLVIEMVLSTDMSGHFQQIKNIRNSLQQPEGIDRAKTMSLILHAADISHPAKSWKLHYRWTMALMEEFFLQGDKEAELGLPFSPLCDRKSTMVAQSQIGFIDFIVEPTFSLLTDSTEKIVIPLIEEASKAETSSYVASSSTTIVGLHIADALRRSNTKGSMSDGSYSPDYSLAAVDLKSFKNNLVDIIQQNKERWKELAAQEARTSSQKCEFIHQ

SMILES | IC50 (PDE1A; [1]) | IC50 (PDE1C; [1]) | IC50 (PDE1B; read-out: PDE1B, IC50) | IC50 (PDE1A) | IC50 (PDE1C) | IC50 (PDE1B; PDE1B, IC50 (nM))
CCOc1ncccc1-c1cc(NCc2nnc(C)o2)c2c(n1)c(C)nn2C(C)C [Example 1, 5-(2-ethoxypyridin-3-yl)-1-isopropyl-3-methyl-N-((5-methyl-1,3,4-oxadiazol-2-yl)methyl)-1H-pyrazolo[4,3-b]pyridin-7-amine] | 18 nM | 40 nM | 1.6 nM | – | – | –
CCOc1ncccc1-c1cc(NCc2csc(C)c2)c2c(n1)c(C)nn2C(C)C [Example 34, 5-(2-ethoxy-3-pyridyl)-1-isopropyl-3-methyl-N-[(5-methyl-3-thienyl)methyl]pyrazolo[4,3-b]pyridin-7-amine] | 8.1 nM | 21 nM | 1.8 nM | – | – | –
CCOc1ncccc1-c1cc(NCc2ncc(C)s2)c2c(n1)c(C)nn2C(C)C [Example 2, 5-(2-ethoxy-3-pyridyl)-1-isopropyl-3-methyl-N-[(5-methylthiazol-2-yl)methyl]pyrazolo[4,3-b]pyridin-7-amine] | 0.46 nM | 4.9 nM | 0.071 nM | – | – | –
CCOc1ncccc1-c1cc(NCc2cncc(OC)c2)c2c(n1)c(C)nn2C(C)C [Example 106, 5-(2-ethoxy-3-pyridyl)-1-isopropyl-N-[(5-methoxy-3-pyridyl)methyl]-3-methyl-pyrazolo[4,3-b]pyridin-7-amine] | 2.1 nM | 3.9 nM | 0.45 nM | – | – | –
CCOc1ncccc1-c1cc(NCc2ncn(C)n2)c2c(cnn2C(C)C)n1 [Example 56, 5-(2-ethoxy-3-pyridyl)-1-isopropyl-N-[(1-methyl-1,2,4-triazol-3-yl)methyl]pyrazolo[4,3-b]pyridin-7-amine] | 16 nM | 45 nM | 1 nM | – | – | –
CCOc1ncccc1-c1cc(NCc2nccn2C)c2c(cnn2C(C)C)n1 [Example 17, 5-(2-ethoxy-3-pyridyl)-1-isopropyl-N-[(1-methylimidazol-2-yl)methyl]pyrazolo[4,3-b]pyridin-7-amine] | 700 nM | 970 nM | 54 nM | – | – | –
CCOc1ncccc1-c1cc(NCc2ccc(C)s2)c2c(n1)c(C)nn2C(C)C [Example 36, 5-(2-ethoxy-3-pyridyl)-1-isopropyl-3-methyl-N-[(5-methyl-2-thienyl)methyl]pyrazolo[4,3-b]pyridin-7-amine] | 24 nM | 41 nM | 5.2 nM | – | – | –
COc1ncccc1CNc1cc(-c2cccnc2OC(F)F)nc2c(C)nn(C(C)C)c12 [Example 188, 5-[2-(difluoromethoxy)-3-pyridyl]-1-isopropyl-N-[(2-methoxy-3-pyridyl)methyl]-3-methyl-pyrazolo[4,3-b]pyridin-7-amine] | 61 nM | 60 nM | 7.8 nM | – | – | –
CCCOc1ncccc1-c1cc(NCc2cc[nH]n2)c2c(n1)c(C)nn2C(C)C [Example 143, 1-isopropyl-3-methyl-5-(2-propoxy-3-pyridyl)-N-(1H-pyrazol-3-ylmethyl)pyrazolo[4,3-b]pyridin-7-amine] | 3.8 nM | 9.2 nM | 0.26 nM | – | – | –
Cc1csc(-c2cc(NCc3cnn(C)c3)c3c(n2)c(C)nn3C(C)C)n1 [Example 149, 1-isopropyl-3-methyl-N-[(1-methylpyrazol-4-yl)methyl]-5-(4-methylthiazol-2-yl)pyrazolo[4,3-b]pyridin-7-amine] | 29 nM | 69 nM | 2.4 nM | – | – | –
Cc1nn(C(C)C)c2c(NCc3cnn(C)c3)cc(N3CC(C)OC3=O)nc12 (stereo not drawn) [Example 150, 3-[1-isopropyl-3-methyl-7-[(1-methylpyrazol-4-yl)methylamino]pyrazolo[4,3-b]pyridin-5-yl]-5-methyl-oxazolidin-2-one] | 44 nM | 13 nM | 33 nM | – | – | –
Cc1nn(C(C)C)c2c(NCc3cnn(C)c3)cc(-c3nccs3)nc12 [Example 147, 1-isopropyl-3-methyl-N-[(1-methylpyrazol-4-yl)methyl]-5-thiazol-2-yl-pyrazolo[4,3-b]pyridin-7-amine] | 12 nM | 28 nM | 2.1 nM | – | – | –
CCOc1ncccc1-c1cc(NCc2scnc2C)c2c(cnn2C(C)C)n1 [Example 71, 5-(2-ethoxy-3-pyridyl)-1-isopropyl-N-[(4-methylthiazol-5-yl)methyl]pyrazolo[4,3-b]pyridin-7-amine] | – | – | – | 170 nM | 180 nM | 18 nM
CCOc1ncccc1-c1cc(NCc2ccccc2F)c2c(n1)c(C)nn2C(C)C [Example 89, 5-(2-ethoxy-3-pyridyl)-N-[(2-fluorophenyl)methyl]-1-isopropyl-3-methyl-pyrazolo[4,3-b]pyridin-7-amine] | 61 nM | 93 nM | 1.5 nM | – | – | –
CCOc1ncccc1-c1cc(NCc2cc(C)on2)c2c(n1)c(C)nn2C(C)C [Example 3, 5-(2-ethoxy-3-pyridyl)-1-isopropyl-3-methyl-N-[(5-methylisoxazol-3-yl)methyl]pyrazolo[4,3-b]pyridin-7-amine] | 0.8 nM | 3 nM | 0.11 nM | – | – | –
CCOc1ncccc1-c1cc(NCc2noc(C)n2)c2c(n1)c(C)nn2C(C)C [Example 52, 5-(2-ethoxy-3-pyridyl)-1-isopropyl-3-methyl-N-[(5-methyl-1,2,4-oxadiazol-3-yl)methyl]pyrazolo[4,3-b]pyridin-7-amine] | 1.9 nM | 4.4 nM | 0.17 nM | – | – | –
COc1ncccc1CNc1cc(-c2ccnn2C)nc2c(C)nn(C(C)C)c12 [Example 175, 1-isopropyl-N-((2-methoxypyridin-3-yl)methyl)-3-methyl-5-(1-methyl-1H-pyrazol-5-yl)-1H-pyrazolo[4,3-b]pyridin-7-amine] | 83 nM | 130 nM | 17 nM | – | – | –
CCOc1ncccc1-c1cc(NCc2nccnc2OC)c2c(n1)c(C)nn2C(C)C [Example 91, 5-(2-ethoxy-3-pyridyl)-1-isopropyl-N-[(3-methoxypyrazin-2-yl)methyl]-3-methyl-pyrazolo[4,3-b]pyridin-7-amine] | 27 nM | 70 nM | 2.3 nM | – | – | –
CCOc1ncccc1-c1cc(NCc2cccnc2F)c2c(n1)c(C)nn2C(C)C [Example 85, 5-(2-ethoxy-3-pyridyl)-N-[(2-fluoro-3-pyridyl)methyl]-1-isopropyl-3-methyl-pyrazolo[4,3-b]pyridin-7-amine] | 8.4 nM | 27 nM | 0.22 nM | – | – | –
CCOc1ncccc1-c1cc(NCc2ccccn2)c2c(n1)c(C)nn2C(C)C [Example 100, 5-(2-ethoxy-3-pyridyl)-1-isopropyl-3-methyl-N-(2-pyridylmethyl)pyrazolo[4,3-b]pyridin-7-amine] | 6.3 nM | 21 nM | 0.39 nM | – | – | –
CCOc1ncccc1-c1cc(NCc2nccc(OC)n2)c2c(n1)c(C)nn2C(C)C [Example 189, 5-(2-ethoxy-3-pyridyl)-1-isopropyl-N-[(4-methoxypyrimidin-2-yl)methyl]-3-methyl-pyrazolo[4,3-b]pyridin-7-amine] | 3.9 nM | 19 nM | 0.49 nM | – | – | –
CCOc1ncccc1-c1cc(NCc2cccnc2C)c2c(n1)c(C)nn2C(C)C [Example 84, 5-(2-ethoxy-3-pyridyl)-1-isopropyl-3-methyl-N-[(2-methyl-3-pyridyl)methyl]pyrazolo[4,3-b]pyridin-7-amine] | 19 nM | 23 nM | 1.8 nM | – | – | –
